Entries after “also recorded” stand apart in the source; their conditions may differ.
Legend:
[1] = tested on: human neurons; assay: Human neuron ATP luminescence assay; format: cell-based; details: 100 μM
Protocol: If the sugar compounds are to be used in neurological disorders, they should not display toxicity to neural cells. Thus, human neurons were used to test the compounds, and the ATP luminescence assay as a readout of metabolic stress and a surrogate of toxicity. Compounds were tested at a high dose of 100 μM. […] Two compounds that reduced ATP production by more than 50% were the 4-fluorinated hemiacetals that respectively bear O3,O6-diacetates 10 (Ac-4-F-GlcNAcOH) and O3,O6-dipropanoates 11 (Pr-4-F-GlcNAcOH), with the former displaying higher cytotoxicity than the latter (FIG. 6d).
Human fetal neurons were plated at 10×10^4 cells/well in 96 well plates as previously described [Vecil, G. G. et al. Interleukin-1 is a key regulator of matrix metalloproteinase-9 expression in human neurons in culture and following mouse brain trauma in vivo. Journal of Neuroscience Research 61, 212-224 (2000)]. After 24 hours neurons were treated with 100 μM compounds and incubated for 24 hours. The ATP assay (CellTiter-Glo Luminescent Cell Viability Assay; Promega, Madison, WI, USA) was then performed to test for toxicity according to manufacturer's instructions.

[2] = tested on: EAE mice; assay: Experimental autoimmune encephalomyelitis (EAE) clinical score; format: in vivo, mouse
[3] = tested on: splenocytes; assay: Propidium iodide DNA cell cycle flow cytometry of splenocytes; format: cell-based, mouse; details: activated splenocytes
Text: Cell-cycle flow cytometry with propidium iodide was used to corroborate the above results, and ensure the reduction in proliferation was not due to cell death. […] To further investigate whether the reduction of proliferation was due to cell death, Annexin V and propidium iodide staining were used to differentiate necrotic cells (propidium iodide+), apoptotic cells (annexin V+), dead cells (propidium iodide+ and annexin V+), and live cells (propidium iodide-annexin V−).
Cell cycle staining with propidium iodide (PI) and analysis by flow cytometry gives percentage of cells in apoptosis, G1, G2, and synthesis, and apoptosis. Following a membrane permeabilization, PI chelates to DNA and level of staining specifies the stage of the cell cycle (e.g., G2 phase will have twice the DNA and thus twice the PI signal as G1 phase, apoptotic cells contain less DNA than healthy cells and are identified by low PI staining). 1×10^6 splenocytes were used per sample, with four replicates per condition. Cells were collected into a tube with PBS and centrifuged (200 r.p.m. for 5 minutes). […] Suspension was transferred to a FACs tube and analyzed. Annexin V/Propidium iodide staining was detected using the Annexin V FITC apoptosis detection kit (BD Biosciences, #556547), which was performed according to manufacturer's instructions.

[4] = tested on: EAE mice; assay: Flow cytometry of spinal cord and circulating leukocytes in EAE mice; format: in vivo, mouse
Text: To assess the inflammatory profile of circulating leukocytes, we performed flow cytometry using a modified protocol published previously [Bellavance, M. A., Gosselin, D., Yong, V. W., Stys, P. K. & Rivest, S. Patrolling monocytes play a critical role in CX3CR1-mediated neuroprotection during excitotoxicity. Brain Struct Funct 220, 1759-76 (2015)]. Briefly, mice were anaesthetized using ketamine/xylazine, after which blood was drawn via cardiac puncture. Heparin-coated syringes were used to draw approximately 130 μL of blood, which was then subsequently diluted with 70 μL of Hanks' Balanced Salt Solution (HBSS; Gibco) without calcium and magnesium. Fc receptors were then blocked by addition of Mouse BD Fc Block (1:100; BD Pharmingen) for 30 minutes at 4° C. Primary antibodies (1:50) were then added and incubated for 45 minutes at 4° C. The primary antibodies used were CD45-PerCP (BD Pharmingen; Clone 30-F11), CD11b-FITC (BD Pharmingen; Clone M1/70), Ly6G-APC-Cy7 (BD Pharmingen; Clone 1A8), Ly6C-V450 (BD Horizon; Clone AL-21), and CD3-PE (BD Pharmingen; Clone 17A2). Red blood cells were then lysed by rocking samples at room temperature for 12 minutes with 1 mL of BD FACS Lysing Solution (BD Biosciences). Samples were then washed at 1200 rpm for 10 minutes at 4° C., followed by two more washes at 2000 rpm for 3 minutes at 4° C. Prior to acquisition on a flow cytometer (BD LSRII), cells were then fixed in 1% formalin for 10 minutes and then resuspended in HBSS without calcium and magnesium.
For flow cytometry of the spinal cord, spinal cords were dissected following a PBS perfusion. The thoracic and lumber sacral part of isolated spinal cords were separated into neural and leucocyte populations by density gradient centrifugation using isotonic Percoll (GE Healthcare). The leukocytes samples were prepared at 4° C. in fluorescence-activated cell sorting (FACS) buffer solution (BD Biosciences) and Fc receptors were then blocked by addition of Mouse BD Fc Block (1:100; BD Pharmingen) for 30 minutes at 4° C. The cells were stained with antibodies against CD45-PerCP (BD Pharmingen; Clone 30-F11), CD11b-FITC (BD Pharmingen; Clone M1/70) and CD3-APC-Cy7 (BD Pharmingen; Clone 17A2) for 45 minutes and then washed three times with FACS buffer. The cells were fixed in 1% buffered formalin for 10 min and resuspended in the 200 μl of the FACS buffer.
Data acquisition was performed on a flow cytometer (BD FACSAria; BD Biosciences) and analysed with FlowJo software (version 8.6, TreeStar). To ensure proper compensation and gating, unstained samples, appropriate isotype controls, and single-stain controls were included. All data was analyzed using FlowJo software.

[5] = tested on: splenocytes; details: shown previously (Grigorian et al. 2011); cited from earlier work
[6] = tested on: CSPG production by astrocytes; details: previously described (Keough et al. 2016); cited from earlier work
[7] = tested on: mice demyelinated with lysolecithin; details: previously described (Keough et al. 2016); cited from earlier work
[8] = tested on: EAE mice; details: previously shown (Keough et al. 2016), 50 mgkg−1; cited from earlier work
[9] = 50 mg/kg intraperitoneal daily, day 7 to day 15
[10] = 25 mg/kg daily day 7 to 15, lumbar/thoracic spinal cord
[11] = 25 mg/kg daily day 7 to 15, spinal cord

CC(=O)NC1C(O)OC(COC(C)=O)[C@@H](F)[C@@H]1OC(C)=O (mixture of isomers) [Compound 10]
cytotoxicity on neurons [1]: showed evidence of toxicity on neurons
EAE clinical score [2, 9]: did not reduce EAE clinical score; also recorded: no significant improvement in EAE clinical score

CC(=O)NC1C(OC(C)=O)OC(COC(C)=O)C(F)(F)[C@@H]1OC(C)=O (mixture of isomers) [Compound 16, 2-Acetamido-1,3,6-tri-O-acetyl-2,4-dideoxy-4,4-difluoro-α/β-D-xylo-hexopyranose]
cytotoxicity on neurons [1]: no signs of toxicity in neurons
percentage of cells in cell cycle phases [3]: reduced the percentage of cells in the S (DNA synthesis)-phase of the cell cycle
circulating monocyte, neutrophil and lymphocyte populations ([4]; 25 mg/kg daily day 7 to 15, blood at peak EAE): no significant difference; also recorded: did not show changes in monocyte or lymphocyte populations; also recorded: did not affect levels of circulating leukocytes
CD45+ CD3+ T lymphocytes within the spinal cord [4, 10]: significantly lowered
CD45HiCD11b+ infiltrating monocytes/macrophages in spinal cord [4, 10]: significantly decreased
median fluorescence intensity of CD11b of CD11b+CD45+ cells [4, 11]: significantly reduced
median fluorescence intensity of CD45 in CD11b+CD45+ cells [4, 11]: decreased
EAE clinical score ([2]; 25 mg/kg daily from peak clinical severity (day 15)): significantly reduced EAE clinical severity; also recorded: did not significantly improve disability until nine days after treatment
sum of scores (burden of disease) ([2]; 25 mg/kg intraperitoneal daily, day 7 to day 15): significantly reduced
EAE clinical score ([2]; 25 mg/kg intraperitoneal daily, day 7 to day 15 (pre-onset)): significantly lower EAE clinical scores than the control group
EAE clinical score [2, 9]: pronounced reduction in EAE clinical severity beyond that seen for the mono-fluorinated Ac-4-F-GlcNAc

CC(=O)N[C@H]1[C@H](OC(C)=O)O[C@H](COC(C)=O)[C@@H](OC(C)=O)[C@@H]1OC(C)=O [Compound 1, reference compound]
splenocyte proliferation [5]: reduction in splenocyte proliferation

CC(=O)NC1C(OC(C)=O)OC(COC(C)=O)[C@@H](F)C1OC(C)=O (stereo partly drawn) [Compound 3, reference compound]
production of CSPGs by astrocytes [6]: reduced production of CSPGs by astrocytes
remyelination [7]: promoted remyelination following lysolecithin demyelination of the mouse spinal cord
EAE clinical disability [8]: attenuated the severity of mice afflicted with EAE; also recorded: reduced the ensuing EAE clinical disability

CCCC(=O)OC[C@H]1OC(O)[C@H](NC(C)=O)[C@@H](OC(=O)CCC)[C@@H]1F (stereo partly drawn) [Compound 12, 2-Acetamido-3,6-di-O-butanoyl-2,4-dideoxy-4-fluoro-α/β-3-D-glucopyranose]
cytotoxicity on neurons [1]: showed no cytotoxicity

Reference: US12600740B2, “Fluorinated N-acetyl glucosamine analogs and xylose derivatives” (UTI Limited Partnership, priority 2018, dated 2026)
